target: Glycine receptor (Rattus norvegicus, UniProt P22771+P24524+P07727+P20781); format: cell membranes, Wistar, Spinal cord, Membrane; conditions: not given; also: in other assays of this panel Not Active means under 50% inhibition at 10 µM

| SMILES | IC50 |
| --- | --- |
| CNC(=C[N+](=O)[O-])NCCSCc1csc(CN(C)C)n1 [NIZATIDINE] | Not Active |
| C[C@]12C/C(=C/O)C(=O)C[C@@H]1CC[C@@H]1[C@@H]2CC[C@@]2(C)[C@H]1CC[C@]2(C)O [OXYMETHOLONE] | Not Active |
| CC(C)(CO)C(O)C(=O)NCCCO (stereo not given) [PANTHENOL] | Not Active |
| COc1ccc(Cc2nccc3cc(OC)c(OC)cc23)cc1OC [PAPAVERINE] | Not Active |
| OCCN1CCN(CCCN2c3ccccc3Sc3ccc(Cl)cc32)CC1 [PERPHENAZINE] | Not Active |
| CCCCC1C(=O)N(c2ccccc2)N(c2ccccc2)C1=O [PHENYLBUTAZONE] | Not Active |
| Cc1cccc(Nc2cc(Cl)nc(SCC(=O)O)n2)c1C [PIRINIXIC ACID] | Not Active |

target: T1, C-C chemokine receptor type 4 (Homo sapiens, UniProt P51679); format: cell membranes, Membrane; conditions: chem-1; also: in other assays of this panel Not Active means under 50% inhibition at 10 µM
T1 sequence (P51679 whole entry): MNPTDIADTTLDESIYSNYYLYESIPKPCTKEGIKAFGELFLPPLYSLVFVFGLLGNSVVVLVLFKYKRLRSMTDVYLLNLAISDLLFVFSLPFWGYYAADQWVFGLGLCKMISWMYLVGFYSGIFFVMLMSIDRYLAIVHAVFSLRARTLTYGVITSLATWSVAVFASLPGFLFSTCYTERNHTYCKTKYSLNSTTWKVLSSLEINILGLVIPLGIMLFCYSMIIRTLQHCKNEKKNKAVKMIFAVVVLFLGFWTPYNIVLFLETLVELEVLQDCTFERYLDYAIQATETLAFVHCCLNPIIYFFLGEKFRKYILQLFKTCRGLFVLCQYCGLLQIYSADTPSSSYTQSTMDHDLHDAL

| SMILES | IC50 |
| --- | --- |
| CNC(=C[N+](=O)[O-])NCCSCc1csc(CN(C)C)n1 [NIZATIDINE] | Not Active |
| C[C@]12C/C(=C/O)C(=O)C[C@@H]1CC[C@@H]1[C@@H]2CC[C@@]2(C)[C@H]1CC[C@]2(C)O [OXYMETHOLONE] | Not Active |
| CC(C)(CO)C(O)C(=O)NCCCO (stereo not given) [PANTHENOL] | Not Active |
| COc1ccc(Cc2nccc3cc(OC)c(OC)cc23)cc1OC [PAPAVERINE] | Not Active |
| OCCN1CCN(CCCN2c3ccccc3Sc3ccc(Cl)cc32)CC1 [PERPHENAZINE] | Not Active |
| CCCCC1C(=O)N(c2ccccc2)N(c2ccccc2)C1=O [PHENYLBUTAZONE] | Not Active |
| Cc1cccc(Nc2cc(Cl)nc(SCC(=O)O)n2)c1C [PIRINIXIC ACID] | Not Active |

target: Sodium-dependent dopamine transporter (Homo sapiens, UniProt Q01959); test: DRUGMATRIX: Dopamine Transporter radioligand binding (ligand: [125I] RTI-55); format: cell membranes, CHO-K1, Membrane; conditions: cho-k1; Not Active = under 50% inhibition at 10 µM
Sequence (Q01959 whole entry): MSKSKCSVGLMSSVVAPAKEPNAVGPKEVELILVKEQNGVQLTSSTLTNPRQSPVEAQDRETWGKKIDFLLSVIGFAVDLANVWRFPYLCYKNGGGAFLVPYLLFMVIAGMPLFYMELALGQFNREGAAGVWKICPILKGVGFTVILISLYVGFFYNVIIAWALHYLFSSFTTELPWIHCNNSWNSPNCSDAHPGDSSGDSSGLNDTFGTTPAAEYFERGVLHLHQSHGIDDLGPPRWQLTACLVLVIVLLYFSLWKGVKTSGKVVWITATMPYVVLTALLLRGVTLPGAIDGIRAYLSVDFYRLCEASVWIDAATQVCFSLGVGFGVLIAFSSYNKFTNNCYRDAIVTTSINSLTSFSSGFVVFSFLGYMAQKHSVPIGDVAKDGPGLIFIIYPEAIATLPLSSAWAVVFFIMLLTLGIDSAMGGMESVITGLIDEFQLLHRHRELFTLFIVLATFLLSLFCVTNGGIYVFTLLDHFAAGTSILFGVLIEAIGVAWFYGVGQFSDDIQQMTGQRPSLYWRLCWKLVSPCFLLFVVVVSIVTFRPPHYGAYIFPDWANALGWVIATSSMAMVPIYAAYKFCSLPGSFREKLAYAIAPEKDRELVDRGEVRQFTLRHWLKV

| SMILES | IC50 |
| --- | --- |
| CNC(=C[N+](=O)[O-])NCCSCc1csc(CN(C)C)n1 [NIZATIDINE] | Not Active |
| C[C@]12C/C(=C/O)C(=O)C[C@@H]1CC[C@@H]1[C@@H]2CC[C@@]2(C)[C@H]1CC[C@]2(C)O [OXYMETHOLONE] | Not Active |
| CC(C)(CO)C(O)C(=O)NCCCO (stereo not given) [PANTHENOL] | Not Active |
| COc1ccc(Cc2nccc3cc(OC)c(OC)cc23)cc1OC [PAPAVERINE] | Not Active |
| OCCN1CCN(CCCN2c3ccccc3Sc3ccc(Cl)cc32)CC1 [PERPHENAZINE] | Not Active |
| CCCCC1C(=O)N(c2ccccc2)N(c2ccccc2)C1=O [PHENYLBUTAZONE] | Not Active |
| Cc1cccc(Nc2cc(Cl)nc(SCC(=O)O)n2)c1C [PIRINIXIC ACID] | Not Active |

target: T2, Receptor-type tyrosine-protein phosphatase C (Homo sapiens, UniProt P08575); set-up: species or system Escherichia coli; conditions: not given;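 also: inhibition of CD45 enzyme activity measured using DiFMUP as substrate; in other assays of this panel Not Active means under 50% inhibition at 10 µM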
T2 sequence (P08575 whole entry): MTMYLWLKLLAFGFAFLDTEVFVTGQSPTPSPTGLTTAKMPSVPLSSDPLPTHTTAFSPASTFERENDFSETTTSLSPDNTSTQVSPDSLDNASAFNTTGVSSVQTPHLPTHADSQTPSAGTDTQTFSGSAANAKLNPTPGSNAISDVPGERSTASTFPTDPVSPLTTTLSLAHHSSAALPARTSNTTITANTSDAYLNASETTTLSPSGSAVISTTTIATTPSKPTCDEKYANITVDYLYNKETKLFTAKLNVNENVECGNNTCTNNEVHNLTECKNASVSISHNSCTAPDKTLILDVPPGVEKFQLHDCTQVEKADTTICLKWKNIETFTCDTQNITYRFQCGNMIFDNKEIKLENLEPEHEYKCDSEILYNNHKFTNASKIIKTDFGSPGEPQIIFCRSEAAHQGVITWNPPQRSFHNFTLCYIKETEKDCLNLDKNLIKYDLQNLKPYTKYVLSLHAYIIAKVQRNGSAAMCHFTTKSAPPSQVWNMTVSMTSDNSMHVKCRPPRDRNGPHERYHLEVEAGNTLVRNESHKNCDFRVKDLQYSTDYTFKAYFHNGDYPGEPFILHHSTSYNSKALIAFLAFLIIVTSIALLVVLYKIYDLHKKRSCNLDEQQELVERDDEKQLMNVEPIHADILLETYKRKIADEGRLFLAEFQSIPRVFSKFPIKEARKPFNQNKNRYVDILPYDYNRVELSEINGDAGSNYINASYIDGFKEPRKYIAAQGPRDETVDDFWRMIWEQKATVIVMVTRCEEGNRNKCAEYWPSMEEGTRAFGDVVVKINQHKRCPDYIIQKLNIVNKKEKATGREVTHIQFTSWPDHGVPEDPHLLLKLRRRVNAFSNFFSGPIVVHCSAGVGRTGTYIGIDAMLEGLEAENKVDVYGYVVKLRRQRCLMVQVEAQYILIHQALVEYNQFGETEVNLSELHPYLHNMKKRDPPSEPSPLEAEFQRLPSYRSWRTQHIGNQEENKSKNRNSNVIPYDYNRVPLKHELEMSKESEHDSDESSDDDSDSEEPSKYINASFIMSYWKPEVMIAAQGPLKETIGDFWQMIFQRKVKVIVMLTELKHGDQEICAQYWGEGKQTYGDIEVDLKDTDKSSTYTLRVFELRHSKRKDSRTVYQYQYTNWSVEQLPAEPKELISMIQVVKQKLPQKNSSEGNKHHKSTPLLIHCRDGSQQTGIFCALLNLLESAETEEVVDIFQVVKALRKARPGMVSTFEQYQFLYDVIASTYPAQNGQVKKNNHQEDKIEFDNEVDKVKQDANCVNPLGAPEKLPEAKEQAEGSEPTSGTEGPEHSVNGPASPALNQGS

| SMILES | IC50 |
| --- | --- |
| CNC(=C[N+](=O)[O-])NCCSCc1csc(CN(C)C)n1 [NIZATIDINE] | Not Active |
| C[C@]12C/C(=C/O)C(=O)C[C@@H]1CC[C@@H]1[C@@H]2CC[C@@]2(C)[C@H]1CC[C@]2(C)O [OXYMETHOLONE] | Not Active |
| CC(C)(CO)C(O)C(=O)NCCCO (stereo not given) [PANTHENOL] | Not Active |
| COc1ccc(Cc2nccc3cc(OC)c(OC)cc23)cc1OC [PAPAVERINE] | Not Active |
| OCCN1CCN(CCCN2c3ccccc3Sc3ccc(Cl)cc32)CC1 [PERPHENAZINE] | Not Active |
| CCCCC1C(=O)N(c2ccccc2)N(c2ccccc2)C1=O [PHENYLBUTAZONE] | Not Active |
| Cc1cccc(Nc2cc(Cl)nc(SCC(=O)O)n2)c1C [PIRINIXIC ACID] | Not Active |

target: Histamine H2 receptor (Homo sapiens, UniProt P25021); format: cell membranes, CHO-K1, Membrane; conditions: cho-k1; also: in other assays of this panel Not Active means under 50% inhibition at 10 µM
Sequence (P25021 whole entry): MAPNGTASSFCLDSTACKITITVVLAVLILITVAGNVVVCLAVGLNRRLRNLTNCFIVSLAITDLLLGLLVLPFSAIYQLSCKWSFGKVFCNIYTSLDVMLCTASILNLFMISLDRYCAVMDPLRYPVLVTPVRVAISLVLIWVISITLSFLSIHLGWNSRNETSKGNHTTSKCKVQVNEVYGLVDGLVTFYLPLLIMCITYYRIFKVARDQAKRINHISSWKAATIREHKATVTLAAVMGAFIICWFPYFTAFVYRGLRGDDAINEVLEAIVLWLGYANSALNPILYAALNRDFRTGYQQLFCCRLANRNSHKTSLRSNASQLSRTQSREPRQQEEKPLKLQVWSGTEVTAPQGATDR

| SMILES | IC50 |
| --- | --- |
| CNC(=C[N+](=O)[O-])NCCSCc1csc(CN(C)C)n1 [NIZATIDINE] | Not Active |
| C[C@]12C/C(=C/O)C(=O)C[C@@H]1CC[C@@H]1[C@@H]2CC[C@@]2(C)[C@H]1CC[C@]2(C)O [OXYMETHOLONE] | Not Active |
| CC(C)(CO)C(O)C(=O)NCCCO (stereo not given) [PANTHENOL] | Not Active |
| COc1ccc(Cc2nccc3cc(OC)c(OC)cc23)cc1OC [PAPAVERINE] | Not Active |
| OCCN1CCN(CCCN2c3ccccc3Sc3ccc(Cl)cc32)CC1 [PERPHENAZINE] | Not Active |
| CCCCC1C(=O)N(c2ccccc2)N(c2ccccc2)C1=O [PHENYLBUTAZONE] | Not Active |
| Cc1cccc(Nc2cc(Cl)nc(SCC(=O)O)n2)c1C [PIRINIXIC ACID] | Not Active |

test system: not listed separately; test: DRUGMATRIX: GABAA, Flunitrazepam, Central radioligand binding (ligand: [3H] Flunitrazepam); format: cell membranes, Rattus norvegicus, Wistar, Brain, Membrane; conditions: Not Active = under 50% inhibition at 10 µM

| SMILES | IC50 | Ki |
| --- | --- | --- |
| CNC(=C[N+](=O)[O-])NCCSCc1csc(CN(C)C)n1 [NIZATIDINE] | Not Active | Not Active |
| C[C@]12C/C(=C/O)C(=O)C[C@@H]1CC[C@@H]1[C@@H]2CC[C@@]2(C)[C@H]1CC[C@]2(C)O [OXYMETHOLONE] | Not Active | Not Active |
| CC(C)(CO)C(O)C(=O)NCCCO (stereo not given) [PANTHENOL] | Not Active | Not Active |
| COc1ccc(Cc2nccc3cc(OC)c(OC)cc23)cc1OC [PAPAVERINE] | Not Active | Not Active |
| OCCN1CCN(CCCN2c3ccccc3Sc3ccc(Cl)cc32)CC1 [PERPHENAZINE] | Not Active | Not Active |
| CCCCC1C(=O)N(c2ccccc2)N(c2ccccc2)C1=O [PHENYLBUTAZONE] | Not Active | Not Active |
| Cc1cccc(Nc2cc(Cl)nc(SCC(=O)O)n2)c1C [PIRINIXIC ACID] | Not Active | Not Active |

target: T3, Cytochrome P450 2A6 (Homo sapiens, UniProt P11509); conditions: bti-tn-5b1-4; also: in other assays of this panel Not Active means under 50% inhibition at 10 µM
T3 sequence (P11509 whole entry): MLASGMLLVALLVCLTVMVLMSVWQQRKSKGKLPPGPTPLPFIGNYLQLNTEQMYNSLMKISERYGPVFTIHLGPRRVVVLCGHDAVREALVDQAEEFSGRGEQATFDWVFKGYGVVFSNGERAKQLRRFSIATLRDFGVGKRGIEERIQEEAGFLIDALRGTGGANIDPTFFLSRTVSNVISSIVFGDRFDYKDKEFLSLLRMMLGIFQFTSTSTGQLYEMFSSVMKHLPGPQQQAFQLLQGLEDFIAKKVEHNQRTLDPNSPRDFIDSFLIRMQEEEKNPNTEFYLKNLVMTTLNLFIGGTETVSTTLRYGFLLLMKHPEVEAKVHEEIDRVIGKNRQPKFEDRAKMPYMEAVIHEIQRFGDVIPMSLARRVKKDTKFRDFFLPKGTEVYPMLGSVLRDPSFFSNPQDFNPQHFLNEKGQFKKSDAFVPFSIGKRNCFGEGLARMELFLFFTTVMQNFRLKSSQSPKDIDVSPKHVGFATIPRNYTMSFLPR

| SMILES | IC50 | Ki |
| --- | --- | --- |
| CNC(=C[N+](=O)[O-])NCCSCc1csc(CN(C)C)n1 [NIZATIDINE] | Not Active | Not Active |
| C[C@]12C/C(=C/O)C(=O)C[C@@H]1CC[C@@H]1[C@@H]2CC[C@@]2(C)[C@H]1CC[C@]2(C)O [OXYMETHOLONE] | Not Active | Not Active |
| CC(C)(CO)C(O)C(=O)NCCCO (stereo not given) [PANTHENOL] | Not Active | Not Active |
| COc1ccc(Cc2nccc3cc(OC)c(OC)cc23)cc1OC [PAPAVERINE] | Not Active | Not Active |
| OCCN1CCN(CCCN2c3ccccc3Sc3ccc(Cl)cc32)CC1 [PERPHENAZINE] | Not Active | Not Active |
| CCCCC1C(=O)N(c2ccccc2)N(c2ccccc2)C1=O [PHENYLBUTAZONE] | Not Active | Not Active |
| Cc1cccc(Nc2cc(Cl)nc(SCC(=O)O)n2)c1C [PIRINIXIC ACID] | Not Active | Not Active |

target: Protein kinase C alpha type (Homo sapiens, UniProt P17252); format: cell-based; conditions: sf9

| SMILES | IC50 |
| --- | --- |
| CNC(=C[N+](=O)[O-])NCCSCc1csc(CN(C)C)n1 [NIZATIDINE] | Not Active |
| C[C@]12C/C(=C/O)C(=O)C[C@@H]1CC[C@@H]1[C@@H]2CC[C@@]2(C)[C@H]1CC[C@]2(C)O [OXYMETHOLONE] | Not Active |
| CC(C)(CO)C(O)C(=O)NCCCO (stereo not given) [PANTHENOL] | Not Active |
| COc1ccc(Cc2nccc3cc(OC)c(OC)cc23)cc1OC [PAPAVERINE] | Not Active |
| OCCN1CCN(CCCN2c3ccccc3Sc3ccc(Cl)cc32)CC1 [PERPHENAZINE] | Not Active |
| CCCCC1C(=O)N(c2ccccc2)N(c2ccccc2)C1=O [PHENYLBUTAZONE] | Not Active |
| Cc1cccc(Nc2cc(Cl)nc(SCC(=O)O)n2)c1C [PIRINIXIC ACID] | Not Active |

Source: ChEMBL document CHEMBL1909046, “DrugMatrix in vitro pharmacology data”
